Patent US9168259B2 (GRÜNENTHAL GMBH, priority 2010, dated 2015)

Molecular target: T1, KCNQ2/3 channels (Homo sapiens, UniProt O43525+O43526)
T1 construct: expressed in transfected cells
Experiment: Fluorescence assay using a voltage sensitive dye (fluorimetry)
Format: cell-based
Details: CHO-K1 cells expressing KCNQ2/3; for Emax: CHO-K1, plateau effect relative to saturated retigabine (50 μM) = 100%, negative values = antagonistic, read-out: Fluorimetry % efficacy (retigabine = 100%); for EC50: IC50 where % efficacy is negative, read-out: Fluorimetry EC50/IC50

T1 sequence (O43526 whole entry): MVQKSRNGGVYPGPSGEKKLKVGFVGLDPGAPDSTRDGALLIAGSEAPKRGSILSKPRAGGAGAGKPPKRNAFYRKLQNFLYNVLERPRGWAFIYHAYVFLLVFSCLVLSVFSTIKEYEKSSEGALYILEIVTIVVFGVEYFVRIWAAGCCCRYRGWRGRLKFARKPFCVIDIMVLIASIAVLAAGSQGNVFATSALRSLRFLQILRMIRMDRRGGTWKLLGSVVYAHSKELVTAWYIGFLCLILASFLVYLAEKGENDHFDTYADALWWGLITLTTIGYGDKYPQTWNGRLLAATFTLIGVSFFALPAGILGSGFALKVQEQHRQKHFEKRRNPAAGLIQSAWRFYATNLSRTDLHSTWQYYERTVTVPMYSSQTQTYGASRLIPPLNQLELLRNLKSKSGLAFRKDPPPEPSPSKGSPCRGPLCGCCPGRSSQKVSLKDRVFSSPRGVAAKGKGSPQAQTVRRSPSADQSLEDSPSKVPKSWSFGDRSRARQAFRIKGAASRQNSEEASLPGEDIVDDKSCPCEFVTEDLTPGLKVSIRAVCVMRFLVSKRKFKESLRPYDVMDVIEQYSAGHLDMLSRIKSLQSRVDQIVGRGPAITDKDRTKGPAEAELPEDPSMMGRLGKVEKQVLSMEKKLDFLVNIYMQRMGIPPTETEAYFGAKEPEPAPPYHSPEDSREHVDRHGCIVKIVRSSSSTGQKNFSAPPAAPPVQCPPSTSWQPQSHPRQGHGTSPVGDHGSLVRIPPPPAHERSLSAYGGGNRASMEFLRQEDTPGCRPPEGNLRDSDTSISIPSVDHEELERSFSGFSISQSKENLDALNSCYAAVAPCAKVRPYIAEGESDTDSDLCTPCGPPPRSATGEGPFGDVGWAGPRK
T1 sequence (O43525 whole entry): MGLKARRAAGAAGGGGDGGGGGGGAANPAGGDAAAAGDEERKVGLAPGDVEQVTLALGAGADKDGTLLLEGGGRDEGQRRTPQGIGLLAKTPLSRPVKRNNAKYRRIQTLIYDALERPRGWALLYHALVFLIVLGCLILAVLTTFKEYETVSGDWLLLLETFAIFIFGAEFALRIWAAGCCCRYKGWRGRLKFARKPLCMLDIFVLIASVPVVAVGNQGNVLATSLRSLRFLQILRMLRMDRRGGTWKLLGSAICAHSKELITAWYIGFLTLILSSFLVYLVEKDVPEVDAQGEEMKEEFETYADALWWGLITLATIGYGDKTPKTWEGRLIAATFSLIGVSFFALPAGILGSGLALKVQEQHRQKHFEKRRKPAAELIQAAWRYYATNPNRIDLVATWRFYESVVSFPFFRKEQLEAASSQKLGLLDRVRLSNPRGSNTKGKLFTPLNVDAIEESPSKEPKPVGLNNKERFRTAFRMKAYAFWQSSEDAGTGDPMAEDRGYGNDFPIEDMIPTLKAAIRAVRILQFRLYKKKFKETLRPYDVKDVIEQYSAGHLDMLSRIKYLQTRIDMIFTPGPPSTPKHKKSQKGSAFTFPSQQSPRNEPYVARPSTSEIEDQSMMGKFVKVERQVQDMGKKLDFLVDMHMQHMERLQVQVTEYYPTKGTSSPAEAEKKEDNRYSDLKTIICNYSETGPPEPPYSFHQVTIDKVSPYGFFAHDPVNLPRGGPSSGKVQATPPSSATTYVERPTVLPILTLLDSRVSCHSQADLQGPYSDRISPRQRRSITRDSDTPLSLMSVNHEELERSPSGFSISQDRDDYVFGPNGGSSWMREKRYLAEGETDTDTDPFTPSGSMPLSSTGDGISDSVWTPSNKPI

| Compound | Emax | EC50 |
| --- | --- | --- |
| Cc1cc(N2CCOCC2)nc(SC(C)C)c1C(=O)NCc1cccc(F)c1 [Example 37, N-[(3-Fluorophenyl)-methyl]-2-(isopropylsulfanyl)-4-methyl-6-morpholin-4-yl-pyridine-3-carboxylic acid amide] | 148% | 99 nM |
| C/C=C/c1nc(N2CCOCC2)cc(C)c1C(=O)NCc1cccc(F)c1 [Example 9, N-[(3-Fluorophenyl)-methyl]-4-methyl-6-morpholin-4-yl-2-[(E)-prop-1-enyl]pyridine-3-carboxylic acid amide] | 174% | 740 nM |
| CCSc1nc(N2CCOCC2)cc(C)c1C(=O)NCc1ccc(F)c(C(F)(F)F)c1 [Example 82, 2-Ethylsulfanyl-N-[[4-fluoro-3-(trifluoromethyl)-phenyl]-methyl]-4-methyl-6-morpholin-4-yl-pyridine-3-carboxylic acid amide] | 117% | 118 nM |
| Cc1cc(N2CCOCC2)nc(C(C)C)c1C(=O)NCCCC(F)(F)F [Example 315, 2-Isopropyl-4-methyl-6-morpholin-4-yl-N-(4,4,4-trifluoro-butyl)-pyridine-3-carboxylic acid amide] | 187% | 314 nM |
| CCSc1nc(N2CCOCC2)cc(C)c1C(=O)NCCCc1ccccn1 [Example 109, 2-Ethylsulfanyl-4-methyl-6-morpholin-4-yl-N-(3-pyridin-2-yl-propyl)-pyridine-3-carboxylic acid amide] | 53% | – |
| CCSc1nc(N(C)Cc2ccc(C(F)(F)F)cc2)cc(C)c1C(=O)NCc1cccc(F)c1 [Example 297, 2-Ethylsulfanyl-N-[(3-fluorophenyl)-methyl]-4-methyl-6-[methyl-[[4-(trifluoromethyl)-phenyl]-methyl]-amino]-pyridine-3-carboxylic acid amide] | 125% | 177 nM |
| CCSc1nc(N(C)C2CCOC2)cc(C)c1C(=O)NCc1cccc(F)c1 (stereo not shown) [Example 301, 2-Ethylsulfanyl-N-[(3-fluorophenyl)-methyl]-4-methyl-6-(methyl-tetrahydro-furan-3-yl-amino)-pyridine-3-carboxylic acid amide] | 132% | 767 nM |
| CCSc1nc(N2CCOCC2)cc(C)c1C(=O)NCc1ccc(F)c(OC)c1 [Example 284, 2-Ethylsulfanyl-N-[(4-fluoro-3-methoxy-phenyl)-methyl]-4-methyl-6-morpholin-4-yl-pyridine-3-carboxylic acid amide] | 94% | 648 nM |
| CCSc1nc(N2CCOCC2)cc(C)c1C(=O)NCc1ccc(F)cc1-c1ccc(F)cc1 [Example 85, 2-Ethylsulfanyl-N-[[4-fluoro-2-(4-fluorophenyl)-phenyl]-methyl]-4-methyl-6-morpholin-4-yl-pyridine-3-carboxylic acid amide] | -61% | 107 nM |
| Cc1cc(N2CCOC[C@H]2C)nc(C(C)C)c1C(=O)NCc1ccc(F)cc1 [Example 169, N-[(4-Fluorophenyl)-methyl]-2-isopropyl-4-methyl-6-[(3R)-3-methyl-morpholin-4-yl]-pyridine-3-carboxylic acid amide] | 197% | 24 nM |
| CCSc1nc(N2CC3CCC(C2)O3)cc(C)c1C(=O)NCc1cccc(F)c1 [Example 325, 2-Ethylsulfanyl-N-[(3-fluorophenyl)-methyl]-4-methyl-6-(8-oxa-3-azabicyclo[3.2.1]octan-3-yl)-pyridine-3-carboxylic acid amide] | 153% | 282 nM |
| CCSc1nc(N(C)c2ccccn2)cc(C)c1C(=O)NCc1cccc(F)c1 [Example 170, 2-Ethylsulfanyl-N-[(3-fluorophenyl)-methyl]-4-methyl-6-(methyl-pyridin-2-yl-amino)-pyridine-3-carboxylic acid amide] | 84% | 1240 nM |
| CCSc1nc(N2CC(=O)C2)cc(C)c1C(=O)NCc1cccc(F)c1 [Example 112, 2-Ethylsulfanyl-N-[(3-fluorophenyl)-methyl]-4-methyl-6-(3-oxo-azetidin-1-yl)-pyridine-3-carboxylic acid amide] | 130% | 2740 nM |
| CCSc1nc(N2CCOC[C@H]2COC)cc(C)c1C(=O)NCc1ccc(F)cc1 [Example 248, 2-Ethylsulfanyl-N-[(4-fluorophenyl)-methyl]-6-[(3R)-3-(methoxymethyl)-morpholin-4-yl]-4-methyl-pyridine-3-carboxylic acid amide] | 223% | 313 nM |
| CCSc1nc(N2CCOCC2)cc(C)c1C(=O)NCC(C)(C)C [Example 47, N-(2,2-Dimethyl-propyl)-2-ethylsulfanyl-4-methyl-6-morpholin-4-yl-pyridine-3-carboxylic acid amide] | 119% | 2610 nM |
| CCOc1nc(N2CCOCC2)cc(C)c1C(=O)NCc1ccc(F)c(F)c1 [Example 91, N-[(3,4-Difluoro-phenyl)-methyl]-2-ethoxy-4-methyl-6-morpholin-4-yl-pyridine-3-carboxylic acid amide] | 127% | 117 nM |

| Compound | Emax | EC50 |
| --- | --- | --- |
| CCSc1nc(N2CCOCC2)cc(C)c1C(=O)NCCCc1ccncc1 [Example 115, 2-Ethylsulfanyl-4-methyl-6-morpholin-4-yl-N-(3-pyridin-4-yl-propyl)-pyridine-3-carboxylic acid amide] | 96% | 7970 nM |
| CCSc1nc(N(C)CC2CCCOC2)cc(C)c1C(=O)NCc1cccc(F)c1 (stereo not shown) [Example 175, 2-Ethylsulfanyl-N-[(3-fluorophenyl)-methyl]-4-methyl-6-[methyl-(tetrahydro-pyran-3-yl-methyl)-amino]-pyridine-3-carboxylic acid amide] | 114% | 870 nM |
| CCSc1nc(N2CCOCC2)cc(C)c1C(=O)NCc1cccc(F)c1F [Example 100, N-[(2,3-Difluoro-phenyl)-methyl]-2-ethylsulfanyl-4-methyl-6-morpholin-4-yl-pyridine-3-carboxylic acid amide] | 98% | 118 nM |
| CCOc1nc(N2CCOCC2)cc(C)c1C(=O)NCc1ccc(Cl)cc1 [Example 166, N-[(4-Chlorophenyl)-methyl]-2-ethoxy-4-methyl-6-morpholin-4-yl-pyridine-3-carboxylic acid amide] | 134% | 117 nM |
| CCSc1nc(N(C)Cc2ccncc2)cc(C)c1C(=O)NCc1cccc(F)c1 [Example 118, 2-Ethylsulfanyl-N-[(3-fluorophenyl)-methyl]-4-methyl-6-[methyl-(pyridin-4-yl-methyl)-amino]-pyridine-3-carboxylic acid amide] | 3% | – |
| CCSc1nc(N2CC(C)OC(C)C2)cc(C)c1C(=O)NCc1cccc(F)c1 (stereo not shown) [Example 66, 6-(2,6-Dimethyl-morpholin-4-yl)-2-ethylsulfanyl-N-[(3-fluorophenyl)-methyl]-4-methyl-pyridine-3-carboxylic acid amide] | 109% | 983 nM |
| CCSc1nc(N2CCOCC2)cc(C)c1C(=O)NCCOC [Example 77, 2-Ethylsulfanyl-N-(2-methoxy-ethyl)-4-methyl-6-morpholin-4-yl-pyridine-3-carboxylic acid amide] | 40% | – |
| COc1nc(N2CCOCC2)cc(C)c1C(=O)NCCCC(C)(C)C [Example 86, N-(4,4-Dimethyl-pentyl)-2-methoxy-4-methyl-6-morpholin-4-yl-pyridine-3-carboxylic acid amide] | 236% | 172 nM |
| CCSc1nc(N2CCOCC2)cc(C)c1C(=O)NCC1CCCCO1 (stereo not shown) [Example 69, 2-Ethylsulfanyl-4-methyl-6-morpholin-4-yl-N-(tetrahydro-pyran-2-yl-methyl)-pyridine-3-carboxylic acid amide] | 160% | 4480 nM |
| CCCCSc1nc(N2CCOCC2)cc(C)c1C(=O)NCc1cccc(F)c1 [Example 57, 2-(Butylsulfanyl)-N-[(3-fluorophenyl)-methyl]-4-methyl-6-morpholin-4-yl-pyridine-3-carboxylic acid amide] | 169% | 47 nM |
| Cc1cc(N2CCOCC2)nc(N(C)C)c1C(=O)NCc1ccc(C(F)(F)F)cc1 [Example 241, 2-Dimethylamino-4-methyl-6-morpholin-4-yl-N-[[4-(trifluoromethyl)-phenyl]-methyl]-pyridine-3-carboxylic acid amide] | 160% | 558 nM |
| CCC(C)Cc1nc(N2CCOCC2)cc(C)c1C(=O)NCCCC(C)(C)C (stereo not shown) [Example 278, N-(4,4-Dimethyl-pentyl)-4-methyl-2-(2-methyl-butyl)-6-morpholin-4-yl-pyridine-3-carboxylic acid amide] | 225% | 36 nM |
| CCSc1nc(N2CCOCC2)cc(C)c1C(=O)NCc1ccc(C(F)(F)F)c(F)c1 [Example 142, 2-Ethylsulfanyl-N-[[3-fluoro-4-(trifluoromethyl)-phenyl]-methyl]-4-methyl-6-morpholin-4-yl-pyridine-3-carboxylic acid amide] | 125% | 38 nM |
| Cc1cc(N2CCOCC2)nc(C2CC2)c1C(=O)NCc1cccc(F)c1 [Example 330, 2-Cyclopropyl-N-[(3-fluorophenyl)-methyl]-4-methyl-6-morpholin-4-yl-pyridine-3-carboxylic acid amide] | 156% | 168 nM |
| Cc1cc(N2CCOC[C@H]2C)nc(N(C)C)c1C(=O)NCc1ccc(F)cc1 [Example 172, 2-Dimethylamino-N-[(4-fluorophenyl)-methyl]-4-methyl-6-[(3R)-3-methyl-morpholin-4-yl]-pyridine-3-carboxylic acid amide] | 246% | 378 nM |
| CCSc1nc(N(C)CCCOC)cc(C)c1C(=O)NCCCC(C)(C)C [Example 212, N-(4,4-Dimethyl-pentyl)-2-ethylsulfanyl-6-(3-methoxy-propyl-methyl-amino)-4-methyl-pyridine-3-carboxylic acid amide] | 200% | 152 nM |
